Legend:
Collagen Type I = assay: Real-Time PCR gene expression in human chondrocytes: type I collagen; assay type: cell-based; details: for Fold Expression, Collagen Type I: 1% w/v, ratio to untreated control
Method: (§1) To evaluate the biological effects of chondroitin on human chondrocyte cultures, the expression of a set of genes considered key to establishing the phenotype, and suitable markers for evaluating the quality of the tissue generated, was determined. The study was conducted on chondrocytes prepared from human cartilage, as reported in Example 2, the cells being grown in the presence of chondroitin or chondroitin sulphate. Using a standard procedure, 5*10^4 cells per well were seeded in a 24-well multiwell plate. The chondrocytes were grown in DMEM containing 1% w/v of chondroitin or chondroitin sulphate (endotoxin content ≤0.1 EU/mg). The cells were stimulated for 4, 7 and 10 days (Ishak et al., International J. of Pediatric Otorhinolaryngology, 2011, 75: 835-840), after which the RNA was extracted with Trizol Reagent, as described in the kit manual (Life Technologies Ltd, Milan, Italy). A qualitative morphological analysis of the cell culture was also conducted at the various times, in parallel with RNA extraction, by observing the corresponding samples at 4, 7 and 10 days under the optical microscope. The cells seeded at the three different times were observed under the microscope, and the images that best represented the cell growth conditions were acquired using a time-lapse videomicroscopy workstation. After RNA extraction, reverse transcription was performed with a total of 1 μg RNA and then with amplification by Real-Time PCR of genes which are specific markers for chondrocytes (Table 3).
(§2) Genes connected with matrix production, such as aggrecan, type I collagen, type II collagen and the Sox9 gene, the expression of which is closely correlated with the expression of type II collagen, were analysed as specific markers for differentiation and characterisation of chondrocytes. (Akiyama H., Mod Rheumatol., 2008, 18(3): 213-9; Yang et al., J. of Orthopaedic Res. 2011).
(§3) The gene expression of said markers on human chondrocytes cultured in basic medium (control) and with chondroitin treatment (C) or chondroitin sulphate treatment (CS) was analysed on cell cultures in the second and third growth phases.
(§4) The results of the gene expression analysis were reported as the average of at least 3 independent experiments for tests conducted in the presence of C or CS, on cells in phases 2 and 3.

Collagen Type II = assay: Real-Time PCR gene expression in human chondrocytes: type II collagen; assay type: cell-based; details: 1% w/v, ratio to untreated control
Method: as §1, §2, §3, §4

Sox9 = assay: Real-Time PCR gene expression in human chondrocytes: Sox9; assay type: cell-based; details: 1% w/v, ratio to untreated control
Method: as §1, §2, §3, §4

dogs suffering from DJD = assay: Treatment of degenerative joint disease in dogs; assay type: in vivo, dog; details: dogs with DJD, 15 mg/Kg/day with food, 6 months; scale of 1 to 10; placebo 2.5±1.3
Method: The therapeutic potential of chondroitin in the treatment of joint disease was evaluated in the dog, an experimental model wherein degenerative or inflammatory orthopaedic problems associated with degenerative joint disease (DJD) are particularly recurrent at both young and geriatric age.
The study was conducted on 90 animals with a mean weight of 30±10 Kg, a mean age of about 8 years, of different breeds, both males and females, all suffering from DJD of the shoulder, hip and/or stifle, randomised into three groups of 30 animals treated with 15 mg/Kg/day of chondroitin (C group), 15 mg/Kg/day of chondroitin sulphate (CS group) or 15 mg/Kg/day of starch (placebo group). The animals received the daily dose with their food. An X-ray and a set of diagnostic tests for DJD were conducted on a preliminary basis on all the animals included in the study. […] The study continued for 6 months; during the treatment, the animals, which were cared for by their owners, were monitored by three veterinary surgeons who independently evaluated the state of the animals. Every month the animals' owners and the three veterinary surgeons filled in a questionnaire, allocating a score on a scale of 1-5 to a set of parameters. Once a month the owners evaluated, on a scale of 1 to 5, the lameness of the animal, its willingness to play, load tolerance, and behaviour indicating pain symptoms. […]

HT-1376 cells = assay: Flow cytometry of apoptotic and necrotic cells (Annexin V-FITC/PI); assay type: cell-based, human; parameters: unit not given here; details: 48 h, alone or combined
Method: Flow cytometry was used to evaluate the quantity of apoptotic or necrotic cells. Fluorescein isothiocyanate (Annexin V-FITC) combined with propidium iodide (PI) was used as marker; the apoptotic cells were Annexin V-FITC positive and PI negative, and the necrotic cells were Annexin V-FITC positive and PI positive. The cells were labelled by incubating them with Annexin V-FITC (Diagnostics MedSystems) and PI (Sigma) in a binding buffer (10 mM HEPES, pH 7.4, 150 mM NaCl, 5 mM KCl, 1 mM MgCl2, 2.5 mM CaCl2) for 10 min at ambient temperature, and then washing and resuspending the cell material in the same buffer. The apoptotic and necrotic cells were analysed by flow cytometry (FACScan, Becton-Dickinson), acquiring an average of 2×10^4 events per sample, with determinations in triplicate on three separate experiments.

[1] = 0.04 μg/mL of C or CS and 0.15 μg/mL of GEM
[2] = 5.7 μg/mL of C or CS and 1.7 μg/mL of MMC

| Substance | Fold Expression, Collagen Type I (Collagen Type I; phase II, 4 g) | Fold Expression, Collagen Type I (Collagen Type I; phase II, 7 g) | Fold Expression, Collagen Type I (Collagen Type I; phase II, 10 g) | Fold Expression, Collagen Type I (Collagen Type I; phase III, 4 g) | Fold Expression, Collagen Type I (Collagen Type I; phase III, 7 g) | Fold Expression, Collagen Type I (Collagen Type I; phase III, 10 g) | Fold Expression, Collagen Type II (Collagen Type II; phase II, 4 g) | Fold Expression, Collagen Type II (Collagen Type II; phase II, 7 g) | Fold Expression, Collagen Type II (Collagen Type II; phase II, 10 g) | Fold Expression, Collagen Type II (Collagen Type II; phase III, 4 g) | Fold Expression, Collagen Type II (Collagen Type II; phase III, 10 g) | Fold Expression, Sox9 (Sox9; phase II, 4 g) | Fold Expression, Sox9 (Sox9; phase II, 7 g) | Fold Expression, Sox9 (Sox9; phase II, 10 g) | Fold Expression, Sox9 (Sox9; phase III, 4 g) | Fold Expression, Sox9 (Sox9; phase III, 7 g) | Fold Expression, Sox9 (Sox9; phase III, 10 g) | average overall score for the regression of the disease (dogs suffering from DJD) | Cell state: apoptotic advanced (HT-1376 cells; [1]) | Cell state: apoptotic early (HT-1376 cells; [1]) | other results |
| --- | --- | --- | --- | --- | --- | --- | --- | --- | --- | --- | --- | --- | --- | --- | --- | --- | --- | --- | --- | --- | --- |
| chondroitin | 1.23 ± 0.29 | 1.03 ± 0.52 | 0.67 ± 0.20 | 0.24 ± 0.01 | 0.85 ± 0.49 | 0.59 ± 0.13 | 2.70 ± 0.32 | 2.4 ± 0.43 | 2.56 ± 0.75 | 1.69 ± 0.20 | 2.3 ± 0.16 | 1.87 ± 0.85 | 1.16 ± 0.15 | 1.78 ± 0.75 | 3.68 ± 0.44 | 1.09 ± 0.01 | 0.53 ± 0.02 | 8.5±2.1 | 7 ± 2 | 6 ± 1 | reduction in expression of type I collagen (Collagen Type I; growth phase 2, long incubation times, versus control): 30%; Fold Expression, Collagen Type II (Collagen Type II; phase III, 7 g): 2.62 ± 0.47; Cell state: necrotic (HT-1376 cells; [1]): 28 ± 3; Cell state: viable (HT-1376 cells; [1]): 59 ± 2; Cell state: apoptotic advanced (HT-1376 cells; [2]): 2 ± 1; Cell state: apoptotic early (HT-1376 cells; [2]): 1 ± 1; Cell state: necrotic (HT-1376 cells; [2]): 41 ± 2; Cell state: viable (HT-1376 cells; [2]): 56 ± 3 |
| chondroitin sulphate [CS, reference compound] | 1.20 ± 0.56 | 1.44 ± 0.08 | 1.36 ± 0.05 | 0.34 ± 0.01 | 2.42 ± 0.88 | 1.09 ± 0.45 | 2.8 ± 0.75 | 1.25 ± 0.45 | 0.58 ± 0.29 | 0.50 ± 0.01 | 0.8 ± 0.45 | 2.2 ± 1.20 | 0.86 ± 0.31 | 0.53 ± 0.02 | 2.6 ± 1.21 | 1.41 ± 0.04 | 0.81 ± 0.05 | 5.3±2.3 | 5 ± 1 | 4 ± 1 | Cell state: necrotic (HT-1376 cells; [1]): 23 ± 2; Cell state: viable (HT-1376 cells; [1]): 68 ± 4; Cell state: apoptotic advanced (HT-1376 cells; [2]): 1 ± 1; Cell state: apoptotic early (HT-1376 cells; [2]): 1 ± 1; Cell state: necrotic (HT-1376 cells; [2]): 36 ± 2; Cell state: viable (HT-1376 cells; [2]): 62 ± 4 |

Source: patent publication US10206944B2, “Chondroitin for use in medicine” (ALTERGON S.A., priority 2012, dated 2019)
